The values below come from ChEMBL document CHEMBL3098088, “Synthesis and antimycobacterial activity of novel camphane-based agents” (Bioorg Med Chem Lett, 2014).

Converted amounts (≈) assume the structure as drawn. Where a name gives a salt, the structure may show the parent alone.

A short description of data set [1]: Selectivity index, ratio of IC50 for human 293T cells to MIC for Mycobacterium tuberculosis H37Rv. The class given is toxicity, cell-based. The following applies: read-out: Selectivity Index.
Data set [2] concerns HEK-293T. Briefly: Cytotoxicity against human 293T cells. The class given is cell-based.
In data set [3] the test system is Mycobacterium tuberculosis. Description: Antimycobacterial activity against Mycobacterium tuberculosis H37Rv after 45 days. The class given is functional.

What is called IC50 is the concentration at which inhibition is half-maximal. In general, MIC refers to the lowest concentration found to suppress growth. A low value points to greater potency. Regarding `CC[C@H](C)[C@H](O)C(=O)N[C@@H]1C[C@H]2CC[C@]1(C)C2(C)C`, the selectivity ratio in data set [1] was found to be 13.6. Moreover, the IC50 in data set [2] came to 107 µM. In addition, it took 7.48 µM (≈ 2 µg/mL) to inhibit growth in data set [3] (MIC).
For `CSCC[C@H](O)C(=O)N[C@@H]1C[C@H]2CC[C@]1(C)C2(C)C` the same measures were 1010, 172 µM and 0.17 µM (≈ 0.0485 µg/mL).
As for `CC1(C)[C@@H]2CC[C@@]1(C)[C@H](NC(=O)[C@@H](O)Cc1ccccc1)C2`, in data set [1], the selectivity ratio stood at 330. Further, in data set [2], half-maximal inhibition (IC50) was put at 52.8 µM. Moreover, the MIC in data set [3] is 0.16 µM (≈ 0.0482 µg/mL).
Turning to `CC(C)[C@H](O)C(=O)N[C@@H]1C[C@H]2CC[C@]1(C)C2(C)C`, in data set [1], the selectivity ratio was more than 25.3. In addition, the half-inhibitory concentration (IC50) in data set [2] was more than 200 µM. This molecule also gave a minimum inhibitory concentration (MIC) in data set [3] of 7.89 µM (≈ 2 µg/mL).
As to `CC1(C)[C@@H]2CC[C@@]1(C)[C@H](NC(=O)[C@@H](O)c1ccccc1)C2`, in data set [1], the selectivity ratio came to 619. In data set [2], the 50% inhibitory concentration (IC50) was found to be 105 µM. This molecule also had a minimum inhibitory concentration (MIC) in data set [3] of 0.17 µM (≈ 0.0489 µg/mL).
In turn, `CC[C@@H](CO)NCCN[C@@H](CC)CO` [ETHAMBUTOL HYDROCHLORIDE] gave a minimum inhibitory concentration (MIC) in data set [3] of 7.22 µM.
The molecule `CO[C@H]1/C=C/O[C@@]2(C)Oc3c(C)c(O)c4c(O)c(c(/C=N/N5CCN(C)CC5)c(O)c4c3C2=O)NC(=O)/C(C)=C\C=C\[C@H](C)[C@H](O)[C@@H](C)[C@@H](O)[C@@H](C)[C@H](OC(C)=O)[C@@H]1C` [RIFAMPIN] registered an MIC in data set [3] of 0.06 µM (≈ 0.0494 µg/mL).
As for `CC(C)C[C@H](O)C(=O)N[C@@H]1C[C@H]2CC[C@]1(C)C2(C)C`, the selectivity ratio in data set [1] amounted to 14.9. For the same molecule, inhibition in data set [2] was half-maximal at 112 µM (IC50). This molecule also returned a minimal inhibitory concentration (MIC) in data set [3] of 7.48 µM (≈ 2 µg/mL).
